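GI50 marks 50% less growth. TGI: concentration producing complete growth inhibition.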
Columns and labels:
Test in all cases: NCI tumour cell line growth inhibition, 384-well format
SR leukemia = system: SR leukemia
KM12 colon = system: KM12 colon
SK-MEL-28 melanoma = system: SK-MEL-28 melanoma
NCI-H226 lung = system: NCI-H226 lung
U251 glioblastoma = system: U251 glioblastoma
A498 renal = system: A498 renal
MCF7 breast = system: MCF7 breast
IGROV1 ovarian = system: IGROV1 ovarian
UACC-62 melanoma = system: UACC-62 melanoma
HCT-15 colon = system: HCT-15 colon
OVCAR-3 ovarian = system: OVCAR-3 ovarian
NCI-H322M lung = system: NCI-H322M lung
CCRF-CEM leukemia = system: CCRF-CEM leukemia

In the case of `C/C=C1\NC(=O)[C@H]2CSSCCC=C[C@H](CC(=O)N[C@H](C(C)C)C(=O)N2)OC(=O)[C@H](C(C)C)NC1=O`, the GI50 (SR leukemia) is reported as less than 10 nM, the TGI (SR leukemia) is reported as less than 10 nM and the GI50 (KM12 colon) is reported as less than 10 nM. It also gave a TGI (KM12 colon) of less than 10 nM, a GI50 (SK-MEL-28 melanoma) of less than 10 nM and a TGI (SK-MEL-28 melanoma) of less than 10 nM. The GI50 (NCI-H226 lung) was less than 10 nM, the TGI (NCI-H226 lung) was 19.2 nM and the GI50 (U251 glioblastoma) was less than 10 nM. For the same compound, the TGI (U251 glioblastoma) was less than 10 nM, the GI50 (A498 renal) was less than 10 nM and the TGI (A498 renal) was less than 10 nM. The GI50 (MCF7 breast) was less than 10 nM, the TGI (MCF7 breast) was less than 10 nM and the GI50 (IGROV1 ovarian) was less than 10 nM. It also gave a TGI (IGROV1 ovarian) of less than 10 nM, a GI50 (UACC-62 melanoma) of less than 10 nM and a TGI (UACC-62 melanoma) of less than 10 nM. The GI50 (HCT-15 colon) was 82.9 nM, the TGI (HCT-15 colon) was 806 nM and the GI50 (OVCAR-3 ovarian) was less than 10 nM. For the same compound, the TGI (OVCAR-3 ovarian) was less than 10 nM, the GI50 (NCI-H322M lung) was less than 10 nM and the TGI (NCI-H322M lung) was less than 10 nM. For the same compound, the GI50 (CCRF-CEM leukemia) was less than 10 nM and the TGI (CCRF-CEM leukemia) was less than 10 nM.
